Measured values reported in US20100093862A1, “POTENTIATION OF CELLULAR IMMUNITY USING HISTONE DEACETYLASE (HDAC) INHIBITORS” (Sapporo Medical Univeristy and Japan Science and Technology …, priority 2006, published 2010).

What was measured:
class I and II HDAC = conditions: Non-patent documents 5 and 6; cited from earlier work
[1] = test system: EB virus persistent infection B cells (LG2EBV cells); assay: Flow cytometry of cell surface HLA class I, EB virus persistent infection B cells; format: cell-based; conditions: 4 mM valproic acid, 48 hours
Protocol: EB virus persistent infection B cells (LG2EBV cells) were cultured in 4 mM valproic acid-added culture medium (RPMI1640) or non additive culture medium for 48 hours, and reacted with an anti-pan-HLA class I antibody, W6/32 antibody and with FITC-labeled anti-mouse IgG antibody for 40 minutes respectively, and the cells were fixed in 0.1% formalin/PBS. The fluorescence intensities were measured by flow cytometer (FACScan, Beckton Dickinson).

HMC-1 cells [2] = assay: Flow cytometry of cell surface MHC class I antigen (W6/32 antibody), HMC-1 cells; format: cell-based, human; conditions: vs non-treated
Protocol: (§1) Using the same cells as those in the examples 1 and 2, MCF-7 cells and HMC-1 cells were cultured for 24 hours in the presence of HDAC inhibitor TSA (100 nM) or for 48 hours in the presence of HDAC inhibitor VPA (4 mM), respectively, and the level of MHC class I antigen expressing on the cell surface was analyzed by a flow cytometer (Becton Dickinson).
(§2) (1) 1×10^6 cells were floated in […] PBS buffer, added a primary antibody (an antipan-HLA class I antibody W6/32 (Barnstable, C. J., Bodmer, W. J., Brown, G., Galfre, G., Milstein, C., Williams, A. F., and Zeigler, A. (1978) Cell 14, 9-20)) and incubated for 40 minutes at 4° C. (2) The cells were washed twice with PBS. (3) To the suspended cell was added a secondary antibody (FITC-labeled anti-mouse IgG antibody (IPL, USA)) and incubated for 40 minutes at 4° C. (4) The cells were washed twice with PBS, floated in PBS added with 1% formalin followed by analyzing FITC level of the cell surface by a flow cytometer.

[3] = test system: HIV infection T cells (clone 8E5); assay: Flow cytometry of cell surface HLA class I, HIV infection T cells; format: cell-based; conditions: HIV infection T cells (8E5), 4 mM valproic acid, 48 hours
Protocol: HIV infection T cells (clone 8E5, purchased from ATCC) were cultured in 4 mM valproic acid-added culture medium (RPMI1640) or non additive culture medium for 48 hours, and reacted with an anti-pan-HLA class I antibody, W6/32 antibody and with FITC-labeled anti-mouse IgG antibody for 40 minutes respectively, and the cells were fixed in 0.1% formalin/PBS. The fluorescence intensities were measured by flow cytometer (FACScan, Beckton Dickinson).

[4] = test system: Papilloma virus persistent infection cells (HeLa cells); assay: Flow cytometry of cell surface HLA class I, papilloma virus persistent infection cells; format: cell-based; conditions: 4 mM valproic acid, 48 hours
Protocol: Papilloma virus persistent infection cells (HeLa cells) were cultured in 4 mM valproic acid-added culture medium (RPMI1640) or non additive culture medium for 48 hours, and reacted with an anti-pan-HLA class I antibody, W6/32 antibody and with FITC-labeled anti-mouse IgG antibody for 40 minutes respectively, and the cells were fixed in 0.1% formalin/PBS. The fluorescence intensities were measured by flow cytometer (FACS can, Beckton Dickinson).

[5] = test system: Measles virus persistent infection B cells (Raji-ZH cells); assay: Flow cytometry of cell surface HLA class I, measles virus persistent infection B cells; format: cell-based; conditions: 4 mM valproic acid, 48 hours
Protocol: Measles virus persistent infection B cells (Raji-ZH cells) were cultured in 4 mM valproic acid-added culture medium (RPMI1640) or non additive culture medium for 48 hours, and reacted with an anti-pan-HLA class I antibody, W6/32 antibody and with FITC-labeled anti-mouse IgG antibody for 40 minutes respectively, and the cells were fixed in 0.1% formalin/PBS. The fluorescence intensities were measured by flow cytometer (FACScan, Beckton Dickinson).

[6] = test system: human breast cancer cell line MCF7 cells transplanted into SCID mice; assay: Immunostaining of MCF7 tumor transplanted into SCID mice after oral VPA; format: in vivo; conditions: SCID mouse, water containing 0.4% VPA for 10 days, vs control
Protocol: A human breast cancer cell line MCF7 cells were transplanted into SCID mice. […] One mouse was supplied with water containing 0.4% valproic acid (VPA, Sigma) for 10 days, and the other mouse was supplied with water with no additive as control. […] Following the method according to example 4, treatment of tissue slices as well as immunostaining with anti-HLA class I antibody (EMR8-5) and anti-B2M antibody (EMR-B6) were performed.

[7] = test system: Mumps virus persistent infection B cells (Akata-MP1 cells); assay: Flow cytometry of cell surface HLA class I, mumps virus persistent infection B cells; format: cell-based; conditions: 4 mM valproic acid, 48 hours
Protocol: Mumps virus persistent infection B cells (Akata-MP1 cells) were cultured in 4 mM valproic acid-added culture medium (RPMI1640) or non additive culture medium for 48 hours, and reacted with an anti-pan-HLA class I antibody, W6/32 antibody and with FITC-labeled anti-mouse IgG antibody for 40 minutes respectively, and the cells were fixed in 0.1% formalin/PBS. The fluorescence intensities were measured by flow cytometer (FACScan, Beckton Dickinson).

HMC-1 cells [8] = assay: Chromatin immunoprecipitation with anti-acetylated histone H3 antibody and PCR of B2M gene, HMC-1 cells; format: cell-based, human; conditions: 4 mM VPA, 48 hours
Protocol: (§3) Human breast cancer cell lines, that is, MCF-7 cells and HMC-1 cells were used to culture in the presence of 100 nM TSA (Sigma, USA) for 24 hours or 4 mM VPA (Sigma, USA) for 48 hours, respectively followed by extracting chromatin from the cells according to the manufacturer's instructions (Upstate Inc., USA) and immunoprecipitating the chromatin using anti-acetylated histone H3 antibody (Upstate Inc., USA) (see Assam El-Osta, et al. 2002. MOLECULAR AND CELLULAR BIOLOGY 22(6). p. 1844-1857). The genes binding to the acetylated histones were amplified by using PCR with the B2M gene-specific primers ([…] and […]), electrophoresed on 1% agarose gel followed by detecting with a transilluminator in the presence of ethidium bromide.

HMC-1 cells [9] = assay: Western blot of intracellular B2M, HLA class I heavy chain and actin, HMC-1 cells; format: cell-based, human; conditions: TSA 100 nM, 24 hours
Protocol: (§4) (1) Using the same cells as those in the example 1, MCF-7 cells and HMC-1 cells were cultured in the presence of TSA, a HDAC inhibitor, (100 nM) for 24 hours respectively, followed by harvesting them. (2) 1×10^6 cells are lysed in […] cell lysate (RIPA buffer) and a soluble fraction is harvested as a lysate. SDS sample buffer was added to the lysate. (3) The protein samples were loaded on 7.5% SDS polyacrylamide gel and electrophoresed. (4) The proteins in the gel were transferred on a PVDF membrane (Millipore). (5) The transferred membrane was immersed in 5% skim milk in PBS and blocked for about one hour. (6) The transferred membrane was immersed in a primary antibody (anti-pan-HLA class I heavy chain antibody EMR8-5 (Hokudo, Sapporo), or anti-B2M antibody EMRB6 (Hokudo, Sapporo), or anti-actin antibody (DAKO), and incubated for one hour at room temperature. (7) The transferred membrane was washed with a lavage PBS-T (0.05% Tween 20/PBS, pH7.4) three times. (8) The transferred membrane was immersed in a secondary antibody peroxidase-labeled anti-mouse IgG antibody (KPL, USA) and incubated for one hour at room temperature. (9) The transferred membrane was washed with a lavage PBS-T (0.05% Tween 20/PBS, pH7.4) three times. […] (11) Luminescent signals were detected by exposure to X ray film.

MCF-7 cells [10] = assay: Western blot of intracellular B2M, HLA class I heavy chain and actin, MCF-7 cells; format: cell-based, human; conditions: TSA 100 nM, 24 hours
Protocol: as §4

MCF-7 cells [11] = assay: Chromatin immunoprecipitation with anti-acetylated histone H3 antibody and PCR of B2M gene, MCF-7 cells; format: cell-based, human; conditions: 100 nM TSA, 24 hours
Protocol: as §3

MCF-7 cells [12] = assay: Flow cytometry of cell surface MHC class I antigen (W6/32 antibody), MCF-7 cells; format: cell-based, human; conditions: TSA 100 nM, 24 hours, vs non-treated
Protocol: as §1, §2

CCCC(CCC)C(=O)O [VPA, valproic acid]
HDAC class selectivity (class I and II HDAC): preferably inhibits class I MAC compared with class II HDAC
HLA class I level on a cell surface [1]: recovery of expression was observed
increase of MHC class I level of the cell surface (HMC-1 cells [2]; VPA 4 mM, 48 hours): about 10 times
HLA class I level on a cell surface [3]: recovery of expression was observed
HLA class I level on a cell surface [4]: recovery of expression was observed
HLA class I level on a cell surface [5]: recovery of expression was observed
expression level of B2M in tumor [6]: increased compared to control group
expression level of HLA class I antigen in tumor [6]: increased compared to control group
HLA class I level on a cell surface [7]: recovery of expression was observed
B2M gene detected in anti-acetylated histone H3 immunoprecipitate (HMC-1 cells [8]): B2M gene was detected together with acetylated histones

CC(/C=C/C(=O)NO)=C\[C@@H](C)C(=O)c1ccc(N(C)C)cc1 [TSA, tricostatin A]
HDAC class selectivity (class I and II HDAC): inhibits class I and II HDAC
expression level of intracellular HLA heavy chain and actin proteins (HMC-1 cells [9]): no great difference
level of intracellular B2M protein (HMC-1 cells [9]): remarkably increased
increase of MHC class I level of the cell surface (HMC-1 cells [2]; TSA 100 nM, 24 hours): about 10 times
expression level of intracellular HLA heavy chain and actin proteins (MCF-7 cells [10]): no great difference
level of intracellular B2M protein (MCF-7 cells [10]): remarkably increased
B2M gene detected in anti-acetylated histone H3 immunoprecipitate (MCF-7 cells [11]): B2M gene was detected together with acetylated histones
increase of MHC class I level of the cell surface (MCF-7 cells [12]): about 10 times
